The target of experiment [1] is T1, catalytic domain (JH1, amino acids 826-1132) of human JAK2 (Homo sapiens, UniProt O60674).
T1 construct: catalytic domain (JH1, amino acids 826-1132) of human JAK2; FLAG (N); biotin (biotinylated); purchased Carna Biosciences 08-445-20N; host or cells: baculovirus expression system
Description: JAK2 LanthaScreen JH1 Binding Assay. Particulars: JAK2 JH1 1.5 nM, 50 nM tracer, 2 hours at 25° C.; read-out: JH1 BIND. As for the experimental part: Example A. JAK2 LanthaScreen JH1 Binding Assay
JAK2 JH1 binding assay utilizes catalytic domain (JH1, amino acids 826-1132) of human JAK2 expressed as N-terminal FLAG-tagged, biotinylated protein in a baculovirus expression system (Carna Biosciences, Product #08-445-20N). The assay was conducted in black 384-well polystyrene plates in a final reaction volume of 20 μL. JAK2 JH1 (1.5 nM) was incubated with compounds (100 nL serially diluted in DMSO) in the presence of 50 nM fluorescent JAK2-JH1 tracer and 0.5 nM Streptavidin-Tb cryptate (Cisbio Part #610SATLB) in assay buffer (50 mM Tris, pH=7.5, 10 mM MgCl2, 0.01% Brij-35, 0.1% BSA, 1 mM EGTA, 5% Glycerol and 5 mM DTT). Non-specific binding was accessed in the presence of 2 mM ATP. After incubation for 2 hours at 25° C., LanthaScreen signals were read on a PHERAstar FS plate reader (BMG LABTECH). Data was analyzed with IDBS XLfit and GraphPad Prism 5.0 software using a four parameter dose response curve to determine IC50 for each compound.
In general terms: In TR-FRET formats the signal depends on donor and acceptor labels being close together.

In experiment [2] the target is T2, pseudo-kinase domain (JH2, amino-acids 536-812) of human Wild Type JAK2 (Homo sapiens, UniProt O60674, F794H/W659A/W777A).
T2 construct: pseudo-kinase domain (JH2, amino-acids 536-812 with 3 surface mutations W659A, W777A, F794H); His (C); purchased BPS Bioscience 79463; host or cells: baculovirus expression system
Description: JAK2 LanthaScreen JH2-WT Binding Assay. Particulars: JAK2 JH2-WT 0.145 nM, 50 nM tracer, 1 hour at 25° C.; read-out: JH2 BIND WT. As for the experimental part:
Example B. JAK2 LanthaScreen JH2-WT Binding Assay
JAK2 JH2-WT binding assay utilizes pseudo-kinase domain (JH2, amino-acids 536-812 with 3 surface mutations W659A, W777A, F794H) of human Wild Type JAK2 expressed as C-terminal His-Avi-tagged, biotinylated protein in a baculovirus expression system (BPS Bioscience, Catalog #79463). The assay was conducted in black 384-well polystyrene plates in a final reaction volume of 20 μL. JAK2 JH2-WT (0.145 nM) was incubated with compounds (100 nL serially diluted in DMSO) in the presence of 50 nM Fluorescent JAK2-JH2 Tracer (MedChem Express Catalog #HY-102055) and 0.25 nM Streptavidin-Tb cryptate (Cisbio Part #610SATLB) in assay buffer (50 mM Tris, pH=7.5, 10 mM MgCl2, 0.01% Brij-35, 0.1% BSA, 1 mM EGTA, 5% Glycerol and 5 mM DTT). Non-specific binding was accessed in the presence of 2 mM ATP. After incubation for 1 hour at 25° C., LanthaScreen signals were read on a PHERAstar FS plate reader (BMG LABTECH). Data was analyzed with IDBS XLfit and GraphPad Prism 5.0 software using a four parameter dose response curve to determine IC50 for each compound.

The target of experiment [3] is T3, pseudo-kinase domain (JH2, amino-acids 536-812) of human V617F mutant JAK2 (Homo sapiens, UniProt O60674, F794H/V617F/W659A/W777A).
T3 construct: pseudo-kinase domain (JH2, amino-acids 536-812 with 3 surface mutations W659A, W777A, F794H); His (C); purchased BPS Bioscience 79498; host or cells: baculovirus expression system
The experiment in a line: JAK2 LanthaScreen JH2-V617F Binding Assay. Particulars: JAK2 JH2-V617F 0.26 nM, 50 nM tracer, 1 hour at 25° C.; read-out: JH2 BIND V617F. The method in brief: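 Serially diluted compounds are mixed with 0.26 nM protein, 50 nM fluorescent JAK2-JH2 tracer and 0.25 nM terbium-labelled streptavidin, then incubated 1 h at 25° C. LanthaScreen signal is read, and IC50 is fitted.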

Experiment [4] has as its target catalytic domain (JH1, amino acids 808-1132) of human JAK2 (Homo sapiens, UniProt O60674). Description: JAK2 HTRF Enzyme Activity Assay. The format is biochemical. Conditions: ATP 30 µM, 60 minutes at 25° C.; read-out: V617F ENZ 30 UM.

Some results are limits rather than exact numbers.

catalytic domain (JH1, amino acids 808-1132) of human JAK2, sequence (O60674 808-1132 limits assumed): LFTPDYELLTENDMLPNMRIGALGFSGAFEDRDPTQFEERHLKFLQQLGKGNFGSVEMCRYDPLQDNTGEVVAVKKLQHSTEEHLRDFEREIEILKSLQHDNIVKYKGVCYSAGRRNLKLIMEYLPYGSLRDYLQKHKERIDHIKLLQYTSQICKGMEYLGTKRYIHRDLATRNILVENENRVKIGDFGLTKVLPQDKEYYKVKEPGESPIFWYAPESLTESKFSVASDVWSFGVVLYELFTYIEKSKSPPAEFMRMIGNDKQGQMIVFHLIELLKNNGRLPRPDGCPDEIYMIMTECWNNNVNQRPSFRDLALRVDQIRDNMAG
T3 sequence (O60674 536-812 V617F/W659A/W777A/F794H): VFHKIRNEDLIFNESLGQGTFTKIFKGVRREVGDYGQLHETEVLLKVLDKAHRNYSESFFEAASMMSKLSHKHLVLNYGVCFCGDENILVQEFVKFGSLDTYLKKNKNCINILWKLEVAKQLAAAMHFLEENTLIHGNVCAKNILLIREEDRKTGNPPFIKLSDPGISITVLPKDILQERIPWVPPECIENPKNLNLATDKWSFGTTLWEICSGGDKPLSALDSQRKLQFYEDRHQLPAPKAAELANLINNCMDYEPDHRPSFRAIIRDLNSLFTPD
T2 sequence (O60674 536-812 W659A/W777A/F794H): as the sequence (O60674 536-812 V617F/W659A/W777A/F794H) above, with F82V counted along it
T1 sequence (O60674 826-1132): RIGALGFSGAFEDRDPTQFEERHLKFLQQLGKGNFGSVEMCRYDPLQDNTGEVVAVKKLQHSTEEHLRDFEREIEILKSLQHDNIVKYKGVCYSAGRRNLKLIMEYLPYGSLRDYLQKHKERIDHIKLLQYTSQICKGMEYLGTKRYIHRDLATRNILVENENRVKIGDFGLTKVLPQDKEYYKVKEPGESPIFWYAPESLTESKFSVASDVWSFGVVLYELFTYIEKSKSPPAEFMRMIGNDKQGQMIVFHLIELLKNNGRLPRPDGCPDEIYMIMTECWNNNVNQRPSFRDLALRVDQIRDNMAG

As for `COC(=O)Nc1cc(Nc2cc3c(cn2)n(C)c(=O)n3[C@@H]2CC[C@@H](NC(=O)OC)C2)cc(C2CCCOC2)c1` (stereo partly drawn) [Example 21, Methyl (3-((1-((1R,3R)-3-((methoxycarbonyl)amino)cyclopentyl)-3-methyl-2-oxo-2,3-dihydro-1H-imidazo[4,5-c]pyridin-6-yl)amino)-5-(tetrahydro-2H-pyran-3-yl)phenyl)carbamate], the IC50 is over 1000 nM in experiment [1], at most 10 nM in experiment [2], at most 10 nM in experiment [3] and over 1000 nM in experiment [4].

On to `COC(=O)N[C@@H]1CC[C@@H](n2c(=O)n(C)c3cnc(Nc4cccc(OC5CCC(C#N)CC5)n4)cc32)C1` (stereo partly drawn) [Example 22, Methyl ((1R,3R)-3-(6-((6-((4-cyanocyclohexyl)oxy)pyridin-2-yl)amino)-3-methyl-2-oxo-2,3-dihydro-1H-imidazo[4,5-c]pyridin-1-yl)cyclopentyl)carbamate], for which the IC50 in experiment [1] is over 1000 nM; in experiment [2] it was 10 to 100 nM; in experiment [3], 10 to 100 nM; in experiment [4], over 1000 nM.

As to `COC(=O)N[C@@H]1CC[C@@H](n2c(=O)n(C)c3cnc(Nc4cccc(Oc5ccc6ncccc6c5)n4)cc32)C1` [Example 23, Methyl ((1R,3R)-3-(3-methyl-2-oxo-6-((6-(quinolin-6-yloxy)pyridin-2-yl)amino)-2,3-dihydro-1H-imidazo[4,5-c]pyridin-1-yl)cyclopentyl)carbamate], the IC50 is over 1000 nM in experiment [1], 10 to 100 nM in experiment [2], 10 to 100 nM in experiment [3] and over 1000 nM in experiment [4].

Take `COC(=O)Nc1cc(Nc2cc3c(cn2)n(C)c(=O)n3[C@H]2C[C@H](NC(=O)C3CC3)C2)cc(-c2cnn(C)c2)c1` [Example 24, Methyl (3-((1-((1r,3r)-3-(cyclopropanecarboxamido)cyclobutyl)-3-methyl-2-oxo-2,3-dihydro-1H-imidazo[4,5-c]pyridin-6-yl)amino)-5-(1-methyl-1H-pyrazol-4-yl)phenyl)carbamate]: the IC50 was over 1000 nM in experiment [1], 10 to 100 nM in experiment [2], 10 to 100 nM in experiment [3] and over 1000 nM in experiment [4].

With `CCOC(=O)NC1CC2(C1)CC(n1c(=O)n(C)c3cnc(Nc4cc(NC(=O)OC)cc(-c5cnn(C)c5)c4)cc31)C2` (stereo not shown) [Example 25, Methyl (3-((1-(6-((ethoxycarbonyl)amino)spiro[3.3]heptan-2-yl)-3-methyl-2-oxo-2,3-dihydro-1H-imidazo[4,5-c]pyridin-6-yl)amino)-5-(1-methyl-1H-pyrazol-4-yl)phenyl)carbamate], the IC50 was over 1000 nM in experiment [1], 10 to 100 nM in experiment [2], 100 to 500 nM in experiment [3] and over 1000 nM in experiment [4].

Take `COC(=O)Nc1cc(Nc2cc3c(cn2)n(C)c(=O)n3C2CC3(CC(NS(=O)(=O)C4CC4)C3)C2)cc(-c2cnn(C)c2)c1` (stereo not shown) [Example 26, Methyl (3-((1-(6-(cyclopropanesulfonamido)spiro[3.3]heptan-2-yl)-3-methyl-2-oxo-2,3-dihydro-1H-imidazo[4,5-c]pyridin-6-yl)amino)-5-(1-methyl-1H-pyrazol-4-yl)phenyl)carbamate]: the IC50 in experiment [1] is over 1000 nM; in experiment [2], 10 to 100 nM; in experiment [3], 10 to 100 nM; in experiment [4] it was over 1000 nM.

As to `COC(=O)Nc1cc(Nc2cc3c(cn2)n(C)c(=O)n3C2CC3(C2)CN(C(=O)OC)C3)cc(-c2cnn(C)c2)c1` [Example 27, Methyl 6-(6-((3-((methoxycarbonyl)amino)-5-(1-methyl-1H-pyrazol-4-yl)phenyl)amino)-3-methyl-2-oxo-2,3-dihydro-1H-imidazo[4,5-c]pyridin-1-yl)-2-azaspiro[3.3]heptane-2-carboxylate], the IC50 was over 1000 nM in experiment [1], 100 to 500 nM in experiment [2], 100 to 500 nM in experiment [3] and over 1000 nM in experiment [4].

With `COC(=O)Nc1cc(Nc2cc3c(cn2)n(C)c(=O)n3[C@H]2C[C@H](C#N)C2)cc(-c2cnn(C)c2)c1` [Example 28, Methyl (3-((1-((1r,3r)-3-cyanocyclobutyl)-3-methyl-2-oxo-2,3-dihydro-1H-imidazo[4,5-c]pyridin-6-yl)amino)-5-(1-methyl-1H-pyrazol-4-yl)phenyl)carbamate], the IC50 in experiment [1] is over 1000 nM; in experiment [2], 10 to 100 nM; in experiment [3], 100 to 500 nM; in experiment [4], over 1000 nM.

In the case of `COC(=O)Nc1cc(Nc2cc3c(cn2)n(C)c(=O)n3[C@H]2C[C@](C)(NC(=O)OC)C2)cc(-c2cnn(C)c2)c1` [Example 29, Methyl (3-((1-((1r,3r)-3-((methoxycarbonyl)amino)-3-methylcyclobutyl)-3-methyl-2-oxo-2,3-dihydro-1H-imidazo[4,5-c]pyridin-6-yl)amino)-5-(1-methyl-1H-pyrazol-4-yl)phenyl)carbamate], the IC50 was over 1000 nM in experiment [1], 100 to 500 nM in experiment [2], 100 to 500 nM in experiment [3] and over 1000 nM in experiment [4].

Take `COC(=O)Nc1cc(Nc2cc3c(cn2)n(C)c(=O)n3[C@@H]2CCC(F)(F)C2)cc(-c2cnn(C)c2)c1` [Example 30, Methyl (R)-(3-((1-(3,3-difluorocyclopentyl)-3-methyl-2-oxo-2,3-dihydro-1H-imidazo[4,5-c]pyridin-6-yl)amino)-5-(1-methyl-1H-pyrazol-4-yl)phenyl)carbamate]: the IC50 was over 1000 nM in experiment [1], 10 to 100 nM in experiment [2], 100 to 500 nM in experiment [3] and over 1000 nM in experiment [4].

With `COC(=O)Nc1cc(Nc2cc3c(cn2)n(C)c(=O)n3[C@@H]2CC[C@H](F)C2)cc(-c2cnn(C)c2)c1` [Example 31, Methyl (3-((1-((1R,3S)-3-fluorocyclopentyl)-3-methyl-2-oxo-2,3-dihydro-1H-imidazo[4,5-c]pyridin-6-yl)amino)-5-(1-methyl-1H-pyrazol-4-yl)phenyl)carbamate], the IC50 in experiment [1] is over 1000 nM; in experiment [2], 10 to 100 nM; in experiment [3] it was 10 to 100 nM; in experiment [4] it was over 1000 nM.

`COC(=O)N[C@@H]1CC[C@@H](n2c(=O)n(C)c3cnc(Nc4ccc5cc(-c6cnn(C)c6)ccc5n4)cc32)C1` [Example 32, Methyl ((1R,3R)-3-(3-methyl-6-((6-(1-methyl-1H-pyrazol-4-yl)quinolin-2-yl)amino)-2-oxo-2,3-dihydro-1H-imidazo[4,5-c]pyridin-1-yl)cyclopentyl)carbamate]: the IC50 in experiment [1] is over 1000 nM; in experiment [2] it was 100 to 500 nM; in experiment [3] it was 100 to 500 nM; in experiment [4], over 1000 nM.

With `COC(=O)N[C@@H]1CC[C@@H](n2c(=O)n(C)c3cnc(Nc4ccc5cccc(-c6cnn(C)c6)c5n4)cc32)C1` [Example 33, Methyl ((1R,3R)-3-(3-methyl-6-((8-(1-methyl-1H-pyrazol-4-yl)quinolin-2-yl)amino)-2-oxo-2,3-dihydro-1H-imidazo[4,5-c]pyridin-1-yl)cyclopentyl)carbamate], the IC50 is over 1000 nM in experiment [1], 10 to 100 nM in experiment [2], 10 to 100 nM in experiment [3] and over 1000 nM in experiment [4].
